Test results from patent publication US20210379079A1, “COMPOSITIONS COMPRISING CD20 INHIBITORS AND BISFLUOROALKYL-1,4-BENZODIAZEPINONE COMPOUNDS AND METHODS OF USE THEREOF” (Ayala Pharmaceuticals Inc., priority 2018, published 2021).

What was measured:
Experiment in all cases: Cell surface CD20 levels by flow cytometry (FACS) after GSI treatment
Format in all cases: cell-based
SP49 cells = conditions: for cell surface CD20 levels: SP49 (MCL with Notch4 GOF), 7 days, 0-10000 nM, FIGS. 1A-1B
Method: (§1) The effect of γ-secretase inhibitors (GSIs) on levels of CD20 in lymphoma cell lines was examined (FIG. 1). Cells from five different lymphoma cell lines (SP49 (mantle cell lymphoma (MCL) with Notch4 GOF); Toledo (Diffuse large B-cell lymphoma (DLBCL)); RC (Double Hit DLBCL-MYC, BCL2); SUDHL-4 (DLBCL); and SUDHL-6 (DLBCL)) were treated for 7 days with 0, 1 nM, 10 nM, 100 nM, 500 nM, 1000 nM, and 10000 nM of the following GSIs: Compound 1 (FIG. 1A) or Compound 22 (FIG. 1B). Cell surface CD20 levels were observed by flow cytometry (FACS analysis).
(§2) In a separate experiment, cells from lymphoma cell lines SUDHL-4 (DLBCL); Rec-1 (MCL); and SP49 (MCL) were seeded at 1×10^4 cells/well in a total volume of 250 μl into a 96-well plate. The cells were cultured in RPMI supplemented with 10% FCS.
(§3) Compound 1 or Compound 22 were added to the cell cultures at concentrations of 10, 1, 0.5, 0.1, 0.01, 0.001 μM. Following 7 days of incubation at 37° C., the cells were collected and stained with anti CD20 antibody and cell surface CD20 levels were immediately analyzed by flow cytometry (FACS analysis).

SUDHL-4 cells = conditions: SUDHL-4 (DLBCL); for CD20 levels: separate experiment, 0.001-10 μM, 7 days at 37° C., FIG. 2
Method: as §1, §2, §3

Rec-1 (MCL) = conditions: separate experiment, 0.001-10 μM, 7 days at 37° C., FIG. 2
Method: as §2, §3

Compound | cell surface CD20 levels (SP49 cells) | CD20 levels (SP49 cells; separate experiment, SP49 (MCL), 0.001-10 μM, 7 days at 37° C., FIG. 2) | cell surface CD20 levels (SUDHL-4 cells; 7 days, 0-10000 nM, FIG. 1A) | CD20 levels (SUDHL-4 cells) | CD20 levels (Rec-1 (MCL))
CN1C(=O)[C@@H](NC(=O)[C@H](CCC(F)(F)F)[C@H](CCC(F)(F)F)C(N)=O)N=C(c2ccccc2)c2ccccc21 [Compound 1, (2R,3S)-N-((3S)-1-methyl-2-oxo-5-phenyl-2,3-dihydro-1H-1,4-benzodiazepin-3-yl)-2,3-bis(3,3,3-trifluoropropyl)succinamide] | increased cell surface CD20 levels | dose-dependent increase in CD20 levels | increased cell surface CD20 levels | dose-dependent increase in CD20 levels | dose-dependent increase in CD20 levels
Cc1cccc2c1NC(=O)[C@@H](NC(=O)[C@H](CCC(F)(F)F)[C@H](CCC(F)(F)F)C(N)=O)N=C2c1cccc(F)c1 [Compound 22, (2R,3S)-N-((3S)-5-(3-fluorophenyl)-9-methyl-2-oxo-2,3-dihydro-1H-1,4-benzodiazepin-3-yl)-2,3-bis(3,3,3-trifluoropropyl)succinamide] | increased cell surface CD20 levels |  |  | dose-dependent increase in CD20 levels | dose-dependent increase in CD20 levels
